Measured values as given in paper PMC12175907 (Science Advances, 2025).

Key:
[1] = tested on: adults with overweight or obesity; set-up: method as in 2 sources, ref 4 = [4]; PMID 33567185; doi:10.1056/NEJMoa2032183; 4 J. P. H. Wilding , R. L. Batterham , S. Calanna , M. Davies , L. F. Van Gaal , I. Lingvay , B. M. McGowan , J. Rosenstock , M. T. D. Tran , T. A. Wadden , S. Wharton , K. Yokote , N. Zeuthen , R. F. ||| ref 6 = [6]; PMID 34514682; doi:10.1111/dom.14551; 6 S. Wharton , S. Calanna , M. Davies , D. Dicker , B. Goldman , I. Lingvay , O. Mosenzon , D. M. Rubino , M. Thomsen , T. A. Wadden , S. D. Pedersen , Gastrointestinal tolerability of once-weekly sem; details: cited from earlier work
shrews [2] = assay: food intake and body weight, semaglutide dose-response, shrews; format: in vivo, Suncus murinus; details: 10, 50, 100 and 500 nmol/kg ip, n = 8 per group (legend)
Text: (§1) Adult male shrews (S. murinus) weighing ~50 to 80 g (n = 84 total) were bred and maintained in the De Jonghe Lab (University of Pennsylvania). These animals were offspring from a colony previously maintained at the University of Pittsburgh Cancer Institute (C. Horn); a Taiwanese strain was derived from stock originally supplied by the Chinese University of Hong Kong. Shrews were singly housed in plastic cages (37.3 cm by 23.4 cm by 14 cm, Innovive) under a 12-hour/12-hour light/dark cycle in a temperature-controlled and humidity-controlled environment. Animal were fed ad libitum with a mixture of feline (75%, Laboratory Feline Diet 5003, Lab Diet) and mink food (25%, High Density Ferret Diet 5LI4, Lab Diet) and had ad libitum access to tap water except where noted.
We evaluated the effects on food intake and body weight of different doses of semaglutide. Food was removed 2 hours prior to dark onset. Shortly before dark onset, shrews (n = 9, ~59 ± 2 g) received intraperitoneal injection of semaglutide (10, 50, 100, and 500 nmol/kg) or vehicle. Shrews had ad libitum access to powdered food through a circular (3 cm in diameter) hole in the cage. Food intake was evaluated using our custom-made “feedometers,” consisting of a standard plexiglass rodent housing cage (29 cm by 19 cm by 12.7 cm) with mounted food hoppers resting on a plexiglass cup (to account for spillage). Food intake was manually measured at 6, 24, 48, and 72 hours postinjection. Body weight was taken at 0, 24, 48, and 72 hours. Treatments occurred in a within-subject, counterbalanced design and were 7 days apart.

shrews [3] = assay: emesis, semaglutide, GIP-085 and combo, shrews; format: in vivo, Suncus murinus; details: semaglutide 500 nmol/kg ip; 120 min; n = 10
Text: as §1
We then evaluated the emetogenic actions of semaglutide (500 nmol/kg), GIP-085 (300 nmol/kg), GIP-085/semaglutide, or vehicle in a different cohort of shrews (n = 10). The animals were habituated to the experimental conditions as described above, injected intraperitoneally with semaglutide ([…]), GIP-085 (300 nmol/kg), GIP-085/semaglutide, or vehicle and then video-recorded (Vixia HF-R62, Canon) for 120 min. After 120 min, the animals were returned to their cages. Treatments were separated by 7 days. Emesis parameters were quantified as described above.

DIO GIPR KO mice = assay: body composition (ECHO MRI), DIO GIPR KO mice; format: in vivo, mouse; details: 16 days daily sc, GIP-085 300 nmol/kg, semaglutide 3 nmol/kg, mean ± SEM, n=6 per group
Experimental: C57BL/6 wild-type (n = 23), GLP-1R KO (n = 24), and GIPR KO mice (n = 24) received daily subcutaneous administration of GIP-085 (300 nmol/kg), semaglutide (3 nmol/kg), GIP-085/semaglutide combo, or vehicle for 16 days. Food intake and body weight were manually measured daily. The average body weight at the start of the experiment was 43.7 ± 0.4 g for the wild-type group, 39.0 ± 0.6 g for the GLP-1R KO group, and 36.5 ± 0.4 g for the GIPR KO group. Body composition of mice was determined using quantitative nuclear magnetic resonance analysis (ECHO MRI, 3-1 Composition Analyzer; Echo Medical Systems). At the end of the experiment, the animals were euthanized by CO2.

shrews [4] = assay: IPGTT, semaglutide, shrews; format: in vivo, Suncus murinus; details: 10, 100 and 500 nmol/kg ip, 30 min before glucose 2 g/kg ip, 20 min post-glucose, n = 8 per group
Text: as §1
The protocol for performing an IPGTT in shrews (n = 16) was previously described ([27]). Briefly, each shrews received intraperitoneal injection of semaglutide (10, 100, and 500 nmol/kg) or vehicle (10 ml/kg body weight) followed 30 min later by a glucose bolus injection [2 g/kg, intraperitoneally (ip)]. Blood glucose readings were taken at −30, 0, 20, 40, 60, and 120 min post-glucose administration. This study was conducted using a partial within-subject design, with each animal receiving two treatments separated by a 7-day interval.

## semaglutide
[1]; STEP 1
  patients reporting nausea: 44.2%
  patients reporting vomiting: 24.8%
[1]; people with overweight/obesity without type 2 diabetes
  weight loss: double-digit weight loss
[1]; pooled STEP 1-3 trials
  participants with dose reduction or temporary treatment interruption (GI side effects): ~ 12.5%
  permanent treatment discontinuation (GI side effects): ~ 4.3%
Shrews [2]
  body weight loss: significant body weight loss up to 72 hours after the highest dose tested
  food intake (anorexia): causes anorexia in a dose-dependent manner
Shrews [2]; listed as Semaglutide
  body weight loss: dose-dependently induces body weight loss
Shrews [3]
  shrews that experienced emesis: 60%
DIO GIPR KO mice; Veh: 14.2±0.6g
  total fat mass at the end of the experiment: 8.1 ± 0.6 g
DIO GIPR KO mice; Veh: 22.3±0.5g
  total lean mass at the end of the experiment: 20.9 ± 0.3 g
Shrews [4]
  blood glucose levels following glucose: significantly reduced glucose levels in a dose-dependent manner
Shrews [4]; listed as Semaglutide
  blood glucose levels following glucose: dose-dependently suppresses blood glucose levels
